Assay results taken from PubChem BioAssay AID1949 (Southern Research Institute, 2009).
≈ marks a conversion by molar mass, not a printed value. Records with an inconclusive call do not appear. Calls of active or inactive are those of the source. No rule for the calls is given here.

Test system: M. tuberculosis H37Rv growth inhibition
Experiment: Confirmatory growth inhibition assay against Mycobacterium tuberculosis H37Rv, potency (AID 1949);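 also: bacteria grown 7 days with compound before Alamar blue readout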

SMILES	IC50
COc1ccc(OC(C)C(=O)Nc2ccc(Cl)cc2C)cc1 (stereo not drawn)	0.62 µg/mL (≈ 1.94 µM)
Nc1ncnc(Sc2ncccn2)c1[N+](=O)[O-]	> 50 µg/mL (inactive)
O=C(CCNc1ccc(-c2ccccc2)cc1)c1ccco1	< 0.1 µg/mL
Cc1cccc(-n2nc([N+](=O)[O-])c(=NCCC3=CCCCC3)n2O)c1	3.62 µg/mL (≈ 10.5 µM)
CSc1nsc(SCC(=O)N2CCN(c3ccccc3)CC2)n1	0.35 µg/mL (≈ 0.955 µM)
CC(Oc1ccc(C(=O)NCCc2ccccc2)cc1)C(=O)OCc1ccccc1 (stereo not drawn)	2.32 µg/mL (≈ 5.75 µM)
Cc1ccc(C(=O)N2CCN(c3ccc(NC(=O)COc4c(C)cc(C)cc4Br)cc3)CC2)cc1	1.34 µg/mL (≈ 2.5 µM)
COc1ccc(NC(=O)c2ccc(C#CC(C)(C)O)s2)cc1	0.31 µg/mL (≈ 0.983 µM)
Cc1cc(C)cc(OCC(=O)Nc2ccc3oc(-c4ccc(F)cc4)nc3c2)c1	> 50 µg/mL (inactive)
CCCCOc1ccc(C(=O)NC23CC4CC(CC(C4)C2)C3)cc1	4.33 µg/mL (≈ 13.2 µM)
CCn1cc(C(=O)O)c(=O)c2cc(F)c(N3CCN(C(=S)NC)CC3)cc21	11.8 µg/mL (≈ 30.1 µM)
CCc1ccc(C2C3=C(CC(C)(C)CC3=O)NC3=C2C(=O)c2ccccc23)cc1 (stereo not drawn)	4.44 µg/mL (≈ 11.6 µM)
Cc1cc(OCCCn2ccnc2)ccc1Cl	1.94 µg/mL (≈ 7.74 µM)
COC(=O)c1ccc(COC(=O)c2ccc(Cl)cc2)cc1	> 50 µg/mL (inactive)
Fc1ccc(-c2nn(-c3ccccc3)cc2CNCc2ccccc2)cc1	5.86 µg/mL (≈ 16.4 µM)
Cc1ccc(-c2nn(-c3ccccc3)cc2CNCc2ccccc2)cc1	1.11 µg/mL (≈ 3.14 µM)
CC(C)c1ccc(NC(=S)NC(=O)c2ccccc2F)cc1	2.56 µg/mL (≈ 8.09 µM)
c1ccc2nc3c(nc2c1)Nn1cnnc1S3	> 50 µg/mL (inactive)
Cc1nn(-c2ccc([N+](=O)[O-])cc2)c(C)c1N1C(=O)c2cccc3cc(Br)cc(c23)C1=O	0.39 µg/mL (≈ 0.794 µM)
O=C1c2cccc3c([N+](=O)[O-])ccc(c23)C(=O)N1Cc1ccccc1	46 µg/mL (≈ 138 µM)
CCc1cc2c(=O)c(-c3ccc(OC)cc3)coc2cc1OCC(=O)OC	1.19 µg/mL (≈ 3.23 µM)

SMILES	IC50
O=C(Nc1cccc(C(F)(F)F)c1)Nc1cc(F)c(F)cc1Cl	19.5 µg/mL (≈ 55.5 µM)
CC(=O)NC(=S)NNC(=O)c1ccc(-c2ccccc2)cc1	< 0.1 µg/mL
CCCn1nnnc1NC(=O)c1cccs1	1.67 µg/mL (≈ 7.04 µM)
Cc1nc2ccccc2n1CC(O)COc1ccc(C2C=CCC2)cc1 (stereo not drawn)	1.22 µg/mL (≈ 3.5 µM)
COC(=O)COc1ccc(NC(=O)c2ccc3c(c2)C(=O)N(C(C)(C)C)C3=O)cc1	0.32 µg/mL (≈ 0.78 µM)
COC(=O)COc1ccc(NC(=O)COc2ccc(C)c(C)c2)cc1	3.35 µg/mL (≈ 9.76 µM)
N=c1c2c(-c3ccccc3)c(-c3ccccc3)n(Cc3ccco3)c2ncn1Cc1ccco1	3.09 µg/mL (≈ 6.92 µM)
CC(C)(C)c1ccc(C(=O)Nc2ccc(NC(=S)NC(=O)c3cccs3)cc2)cc1	0.46 µg/mL (≈ 1.05 µM)
Cc1cc(OCCCn2ccnc2)cc(C(C)C)c1	6.24 µg/mL (≈ 24.2 µM)
CNc1nc(N2CCc3ccccc32)ncc1F	0.91 µg/mL (≈ 3.73 µM)
COc1ccc(OC)c(NC(=O)c2cc3cc(Br)ccc3oc2=O)c1	0.2 µg/mL (≈ 0.495 µM)
Cc1ccc2nsnc2c1S(=O)(=O)Nc1cccc2cccnc12	0.31 µg/mL (≈ 0.87 µM)
O=C(OCc1nnc(-c2ccccc2)o1)c1cc(-c2cccs2)nc2ccccc12	3.03 µg/mL (≈ 7.33 µM)
CCOC(=O)c1ccc(NC(=S)Nc2ccc(F)c(Cl)c2)cc1	0.28 µg/mL (≈ 0.794 µM)
O=C(Oc1c(Cl)cc(Cl)c2cccnc12)c1ccc([N+](=O)[O-])cc1	0.88 µg/mL (≈ 2.42 µM)
Cc1ccccc1C(=O)N1CCN(c2ccc(NC(=S)NC(=O)c3cccc(Cl)c3)cc2)CC1	> 50 µg/mL (inactive)
CCOC(=O)/C=C/C(=O)Nc1nc(-c2ccccc2)cs1	0.53 µg/mL (≈ 1.75 µM)
CCn1cc(C(=O)O)c(=O)c2cnc(N3CCN(C(=S)Nc4sc5c(c4C(=O)OC)CCCCCC5)CC3)nc21	> 50 µg/mL (inactive)
O=C(CN(c1ccc(Cl)c(Cl)c1)S(=O)(=O)c1ccccc1)Nc1cccc([N+](=O)[O-])c1	1.47 µg/mL (≈ 3.06 µM)
COc1ccc(S(=O)(=O)Nc2cc(Sc3ccccc3)c(O)c3ccccc23)cc1	5.29 µg/mL (≈ 12.1 µM)
CC1CCN(C(=S)NC(=O)c2ccc(Cl)cc2)CC1	0.35 µg/mL (≈ 1.18 µM)

SMILES	IC50
CCOC(=O)c1c(NC(=S)NC(C)c2ccncc2)sc2c1CCCCCC2 (stereo not drawn)	32.8 µg/mL (≈ 78.6 µM)
O=C(CC12CC3CC(CC(C3)C1)C2)Nc1cccc(C(F)(F)F)c1	0.97 µg/mL (≈ 2.88 µM)
Cc1cc(OCC(O)CNC(C)c2ccccc2)ccc1C(C)C (stereo not drawn)	5.52 µg/mL (≈ 16.9 µM)
COc1cc(Br)cc2cc(C(=O)Nc3ccccc3O)c(=O)oc12	> 50 µg/mL (inactive)
COC(=O)COc1ccc(Br)cc1C=O	12.4 µg/mL (≈ 45.5 µM)
O=C(CSc1ccc(C(F)(F)F)cc1[N+](=O)[O-])OC1CCCCC1	1.26 µg/mL (≈ 3.47 µM)
c1ccc2cc(OCCCn3ccnc3)ccc2c1	10.3 µg/mL (≈ 40.9 µM)
COc1ccccc1OCCCCN1CCN(C(c2ccccc2)c2ccccc2)CC1	8.02 µg/mL (≈ 18.6 µM)
COC(=O)c1c(C)oc2ccc(OC(=O)c3ccc([N+](=O)[O-])cc3)cc12	> 50 µg/mL (inactive)
COC(=O)COc1ccc2c(=O)c(-c3ccccc3Cl)c(C)oc2c1	0.42 µg/mL (≈ 1.17 µM)
CC(C(=O)Oc1cccc2cccnc12)N1C(=O)C2C3C=CC(C4CC34)C2C1=O (stereo not drawn)	3.16 µg/mL (≈ 8.14 µM)
Cc1ccc(Cl)cc1N1CCN(CC(O)COc2ccc(Cl)cc2Cl)CC1 (stereo not drawn)	6.67 µg/mL (≈ 15.5 µM)
N#Cc1c(SCC(=O)OCc2ccccc2)nsc1SCC(=O)OCc1ccccc1	8.73 µg/mL (≈ 18.6 µM)
COc1ccc(Cl)cc1CN1CCN(c2ncnc3scc(-c4ccccc4)c23)CC1	4.15 µg/mL (≈ 9.2 µM)
Cc1cc(C)cc(C(=O)Nc2ccc(N3CCN(C(=O)c4cccs4)CC3)c(Cl)c2)c1	15.5 µg/mL (≈ 34.2 µM)
O=C(COc1ccc2ccccc2c1)c1ccc(Cl)cc1	16.5 µg/mL (≈ 55.4 µM)
CN1CCN(c2ccc(NC(=O)c3ccc(-c4ccc(Br)cc4)o3)cc2)CC1	2.94 µg/mL (≈ 6.68 µM)
CC(=O)c1ccc2[nH]c3ccc(C(C)=O)cc3c2c1	0.2 µg/mL (≈ 0.796 µM)
CSc1ncc(C(=O)Nc2cccc(C(F)(F)F)c2)cn1	< 0.1 µg/mL
O=C(CCN1CCc2ccccc2CC1)c1ccc2c(c1)OCCO2	8.36 µg/mL (≈ 24.8 µM)
O=C1C(=O)N(CCc2ccccc2)c2ccc(Cl)cc21	4.73 µg/mL (≈ 16.6 µM)

SMILES	IC50
CCOC(=O)C1=C(C)N(c2ccc(Br)cc2)C(=O)C1	3.23 µg/mL (≈ 9.96 µM)
O=C(CCSc1nnc(-c2ccccc2)o1)Nc1ccc(F)cc1	5.2 µg/mL (≈ 15.1 µM)
CC(=O)c1cccc(Nc2cc(C)nc3c2ccc2ccccc23)c1	3.1 µg/mL (≈ 9.5 µM)
Oc1ccc(Cl)cc1C1=NNC(c2ccccc2Cl)C1 (stereo not drawn)	0.65 µg/mL (≈ 2.12 µM)
COc1cc(C(=O)Nc2nc3c(s2)CCCC3)c(Br)c(OC)c1OC	2.8 µg/mL (≈ 6.55 µM)
Cc1cc(-c2csc(Nc3ccc(S(N)(=O)=O)cc3)n2)ccc1F	2.34 µg/mL (≈ 6.44 µM)
COc1ccc(CCNC(=S)NC23CC4CC(CC(C4)C2)C3)cc1	7.85 µg/mL (≈ 22.8 µM)
Nc1c(C(=O)NCc2ccc(Cl)cc2)sc2nc3c(c(C(F)(F)F)c12)CCC3	9.45 µg/mL (≈ 22.2 µM)
CC(C)c1ccc(OCC(=O)NNC(=S)NC(=O)c2ccco2)c(Br)c1	0.25 µg/mL (≈ 0.568 µM)
COc1ccccc1C(=O)NNC(=S)NC(=O)c1ccc(-c2ccccc2)cc1	< 0.1 µg/mL
CCC(C)c1ccccc1OCC(=O)Nc1ccc(Cl)cc1 (stereo not drawn)	4.68 µg/mL (≈ 14.7 µM)
Cc1ccc(C(C)C)c(OCCCCn2ccnc2)c1	2.22 µg/mL (≈ 8.15 µM)
O=S1(=O)C=CC2ON=C(c3ccc(Cl)cc3)C21 (stereo not drawn)	1.11 µg/mL (≈ 4.12 µM)
CC(=O)Oc1c(/C=C(\C#N)C(N)=O)[nH]c2ccccc12	5.98 µg/mL (≈ 22.2 µM)
CC(=O)Oc1cccc2ccc(/C=C/c3cccc(Br)c3)nc12	< 0.1 µg/mL
Cc1nc2ccc(C(=O)OCc3cccc(F)c3)cc2nc1C	1.68 µg/mL (≈ 5.41 µM)
CCOC(=O)COc1cc2oc(=O)cc(CC)c2cc1Cl	1.43 µg/mL (≈ 4.6 µM)
CCN(c1ccccc1)S(=O)(=O)c1ccc(NC(=O)Nc2ccc(Cl)cc2)cc1	5.77 µg/mL (≈ 13.4 µM)
Cc1ccc(-c2nnc3sc(Cc4ccccc4)nn23)cc1	< 0.1 µg/mL
Cc1cccnc1Nc1nc(-c2ccccn2)cs1	< 0.1 µg/mL
